{
  "source": "patent US12343326B2",
  "about": "“Psychoactive medicines and their use for treating psychiatric and neurological conditions and disorders” (Transcend Therapeutics, Inc., priority 2021, dated 2025)",
  "experiment_in_all_cases": "β-arrestin based GPCR screen (PathHunter / GPCRmax), agonist mode",
  "format_in_all_cases": "cell-based",
  "design_in_all_cases": "host or cells: PathHunter cell lines",
  "key": {"168 GPCRs [1]": {"biological_target": "168 GPCRs (Homo sapiens, UniProt O95136)", "sequence (O95136 whole entry)": "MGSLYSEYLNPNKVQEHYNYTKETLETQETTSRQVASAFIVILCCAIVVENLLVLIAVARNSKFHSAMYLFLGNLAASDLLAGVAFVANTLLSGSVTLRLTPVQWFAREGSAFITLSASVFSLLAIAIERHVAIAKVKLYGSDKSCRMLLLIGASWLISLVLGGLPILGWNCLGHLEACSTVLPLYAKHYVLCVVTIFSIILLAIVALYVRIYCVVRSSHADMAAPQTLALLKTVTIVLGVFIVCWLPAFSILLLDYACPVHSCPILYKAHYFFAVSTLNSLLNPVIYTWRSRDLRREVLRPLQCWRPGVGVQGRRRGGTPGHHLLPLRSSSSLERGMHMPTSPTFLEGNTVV", "protocol": "(§1) For agonist determination, cells were incubated with sample to induce response. […] Vehicle concentration was 1%."}, "168 GPCRs [2]": {"biological_target": "168 GPCRs (Homo sapiens, UniProt P25090)", "sequence (P25090 whole entry)": "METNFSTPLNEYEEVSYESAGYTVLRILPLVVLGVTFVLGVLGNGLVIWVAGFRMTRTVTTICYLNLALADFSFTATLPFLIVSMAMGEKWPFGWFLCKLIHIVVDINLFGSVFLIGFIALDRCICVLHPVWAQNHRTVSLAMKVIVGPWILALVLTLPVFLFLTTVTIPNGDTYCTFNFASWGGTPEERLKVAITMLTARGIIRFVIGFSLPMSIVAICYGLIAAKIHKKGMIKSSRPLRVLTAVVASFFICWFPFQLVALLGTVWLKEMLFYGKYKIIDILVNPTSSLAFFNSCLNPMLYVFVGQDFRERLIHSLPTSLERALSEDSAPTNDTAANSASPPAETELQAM", "protocol": "as §1"}, "168 GPCRs [3]": {"biological_target": "168 GPCRs (Homo sapiens, UniProt P25116)", "sequence (P25116 22-425)": "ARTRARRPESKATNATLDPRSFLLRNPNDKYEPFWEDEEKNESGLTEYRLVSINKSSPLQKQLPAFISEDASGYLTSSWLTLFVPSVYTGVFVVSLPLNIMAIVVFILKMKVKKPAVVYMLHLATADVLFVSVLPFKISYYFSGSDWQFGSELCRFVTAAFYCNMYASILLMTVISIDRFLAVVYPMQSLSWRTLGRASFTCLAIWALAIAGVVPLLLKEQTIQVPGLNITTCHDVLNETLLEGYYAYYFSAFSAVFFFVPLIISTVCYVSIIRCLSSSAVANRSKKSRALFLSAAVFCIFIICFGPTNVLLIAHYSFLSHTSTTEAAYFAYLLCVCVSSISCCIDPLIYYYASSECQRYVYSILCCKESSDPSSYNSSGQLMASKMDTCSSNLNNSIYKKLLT", "conditions": "F2R", "protocol": "as §1"}, "168 GPCRs [4]": {"biological_target": "168 GPCRs (Homo sapiens, UniProt P25929)", "sequence (P25929 whole entry)": "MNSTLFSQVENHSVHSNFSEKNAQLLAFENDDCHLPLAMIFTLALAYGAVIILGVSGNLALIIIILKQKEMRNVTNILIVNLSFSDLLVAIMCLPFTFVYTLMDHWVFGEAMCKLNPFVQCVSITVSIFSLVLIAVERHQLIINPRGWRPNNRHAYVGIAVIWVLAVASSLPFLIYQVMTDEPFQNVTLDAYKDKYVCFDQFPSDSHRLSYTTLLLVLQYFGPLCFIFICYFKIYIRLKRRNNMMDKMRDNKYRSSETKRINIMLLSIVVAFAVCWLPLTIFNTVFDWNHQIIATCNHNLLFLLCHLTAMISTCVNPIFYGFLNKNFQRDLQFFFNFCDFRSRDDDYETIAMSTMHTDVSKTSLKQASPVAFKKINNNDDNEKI", "conditions": "NPY1R", "protocol": "as §1"}, "168 GPCRs [5]": {"biological_target": "168 GPCRs (Homo sapiens, UniProt P28336)", "conditions": "NMBR", "protocol": "as §1"}, "168 GPCRs [6]": {"biological_target": "168 GPCRs (Homo sapiens, UniProt P30411)", "conditions": "BDKRB2; Agonist; 1 uM", "protocol": "as §1"}, "168 GPCRs [7]": {"biological_target": "T1, 168 GPCRs (Homo sapiens, UniProt P32248)", "T1 sequence (P32248 25-378)": "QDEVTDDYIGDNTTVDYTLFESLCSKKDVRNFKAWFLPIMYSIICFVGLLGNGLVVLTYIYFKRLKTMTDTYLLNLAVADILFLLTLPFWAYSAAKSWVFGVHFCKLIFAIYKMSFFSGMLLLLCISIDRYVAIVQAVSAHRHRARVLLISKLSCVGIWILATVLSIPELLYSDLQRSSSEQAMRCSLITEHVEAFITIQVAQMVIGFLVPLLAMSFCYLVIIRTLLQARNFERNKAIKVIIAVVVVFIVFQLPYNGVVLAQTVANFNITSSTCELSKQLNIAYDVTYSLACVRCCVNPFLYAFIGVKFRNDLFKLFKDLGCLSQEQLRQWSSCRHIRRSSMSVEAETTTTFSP", "conditions": "CCR7, Agonist", "protocol": "as §1"}, "168 GPCRs [8]": {"biological_target": "168 GPCRs (Homo sapiens, UniProt P34998)", "sequence (P34998 24-415)": "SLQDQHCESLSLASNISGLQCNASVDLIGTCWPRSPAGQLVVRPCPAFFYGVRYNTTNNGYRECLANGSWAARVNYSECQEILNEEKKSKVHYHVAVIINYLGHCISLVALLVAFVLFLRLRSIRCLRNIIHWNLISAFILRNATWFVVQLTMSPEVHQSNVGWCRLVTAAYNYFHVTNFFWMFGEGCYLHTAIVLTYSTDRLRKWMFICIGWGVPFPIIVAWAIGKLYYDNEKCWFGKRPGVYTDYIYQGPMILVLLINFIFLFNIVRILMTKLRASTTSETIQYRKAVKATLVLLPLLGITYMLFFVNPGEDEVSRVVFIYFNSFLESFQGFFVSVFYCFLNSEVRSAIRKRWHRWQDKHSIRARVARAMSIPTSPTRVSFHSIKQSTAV", "protocol": "as §1"}, "168 GPCRs [9]": {"biological_target": "168 GPCRs (Homo sapiens, UniProt P35368)", "sequence (P35368 whole entry)": "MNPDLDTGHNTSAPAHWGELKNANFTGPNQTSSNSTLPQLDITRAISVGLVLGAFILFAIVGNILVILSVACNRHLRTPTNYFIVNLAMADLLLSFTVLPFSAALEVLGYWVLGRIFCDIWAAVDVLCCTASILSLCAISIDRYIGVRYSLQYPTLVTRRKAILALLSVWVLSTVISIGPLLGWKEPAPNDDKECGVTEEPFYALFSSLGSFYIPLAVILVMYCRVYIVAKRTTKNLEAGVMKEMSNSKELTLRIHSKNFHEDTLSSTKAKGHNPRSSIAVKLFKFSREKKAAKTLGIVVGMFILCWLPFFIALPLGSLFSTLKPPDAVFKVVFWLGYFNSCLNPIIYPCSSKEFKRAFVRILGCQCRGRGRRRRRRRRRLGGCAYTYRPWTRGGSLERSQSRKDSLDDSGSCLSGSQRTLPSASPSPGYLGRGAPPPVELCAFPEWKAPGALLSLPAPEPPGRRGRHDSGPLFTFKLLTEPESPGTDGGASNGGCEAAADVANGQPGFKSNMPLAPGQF", "conditions": "ADRA1B, Agonist", "protocol": "as §1"}, "168 GPCRs [10]": {"biological_target": "168 GPCRs (Homo sapiens, UniProt P48039)", "sequence (P48039 whole entry)": "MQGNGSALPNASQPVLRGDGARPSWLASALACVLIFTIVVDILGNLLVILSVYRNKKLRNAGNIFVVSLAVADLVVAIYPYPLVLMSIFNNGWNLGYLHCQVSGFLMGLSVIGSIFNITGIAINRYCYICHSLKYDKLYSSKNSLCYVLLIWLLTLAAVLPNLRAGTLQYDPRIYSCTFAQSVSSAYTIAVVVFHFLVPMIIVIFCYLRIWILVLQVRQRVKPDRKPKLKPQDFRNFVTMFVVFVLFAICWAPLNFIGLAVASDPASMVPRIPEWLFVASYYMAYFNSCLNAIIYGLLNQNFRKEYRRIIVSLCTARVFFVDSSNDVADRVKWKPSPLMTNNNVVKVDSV", "conditions": "MTNR1A", "protocol": "as §1"}, "168 GPCRs [11]": {"biological_target": "168 GPCRs (Homo sapiens, UniProt P49682)", "sequence (P49682 whole entry)": "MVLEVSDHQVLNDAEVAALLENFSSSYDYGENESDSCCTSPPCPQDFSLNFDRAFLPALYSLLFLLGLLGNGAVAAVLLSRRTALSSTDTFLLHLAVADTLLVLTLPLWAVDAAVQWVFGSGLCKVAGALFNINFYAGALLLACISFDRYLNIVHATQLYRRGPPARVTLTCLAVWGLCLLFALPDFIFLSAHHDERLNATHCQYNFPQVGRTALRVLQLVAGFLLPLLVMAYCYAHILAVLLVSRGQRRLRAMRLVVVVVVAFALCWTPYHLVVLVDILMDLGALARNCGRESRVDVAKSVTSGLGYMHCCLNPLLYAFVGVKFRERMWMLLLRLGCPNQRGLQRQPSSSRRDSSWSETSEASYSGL", "protocol": "as §1"}, "168 GPCRs [12]": {"biological_target": "168 GPCRs (Homo sapiens, UniProt Q15077)", "sequence (Q15077 whole entry)": "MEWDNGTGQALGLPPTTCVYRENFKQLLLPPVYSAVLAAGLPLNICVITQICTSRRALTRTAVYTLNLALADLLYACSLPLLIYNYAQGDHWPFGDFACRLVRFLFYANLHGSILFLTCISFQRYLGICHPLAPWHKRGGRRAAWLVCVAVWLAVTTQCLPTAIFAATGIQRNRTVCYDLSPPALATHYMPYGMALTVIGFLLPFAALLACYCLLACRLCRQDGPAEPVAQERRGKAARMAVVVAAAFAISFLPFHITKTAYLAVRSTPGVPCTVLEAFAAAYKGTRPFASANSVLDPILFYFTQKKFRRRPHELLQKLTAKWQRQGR", "protocol": "as §1"}, "168 GPCRs [13]": {"biological_target": "168 GPCRs (Homo sapiens, UniProt Q15722)", "sequence (Q15722 whole entry)": "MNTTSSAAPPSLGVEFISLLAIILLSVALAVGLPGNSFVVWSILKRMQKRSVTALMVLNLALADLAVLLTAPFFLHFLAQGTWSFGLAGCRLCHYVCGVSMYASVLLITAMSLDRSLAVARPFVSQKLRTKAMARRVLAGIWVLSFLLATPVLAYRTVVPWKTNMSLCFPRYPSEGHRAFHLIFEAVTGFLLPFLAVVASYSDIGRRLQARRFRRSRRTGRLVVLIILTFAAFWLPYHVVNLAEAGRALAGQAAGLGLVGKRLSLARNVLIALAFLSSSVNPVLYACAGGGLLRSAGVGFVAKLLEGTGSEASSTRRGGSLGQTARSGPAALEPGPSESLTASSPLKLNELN", "conditions": "LTB4R", "protocol": "as §1"}, "168 GPCRs [14]": {"biological_target": "168 GPCRs (Homo sapiens, UniProt Q969V1)", "sequence (Q969V1 whole entry)": "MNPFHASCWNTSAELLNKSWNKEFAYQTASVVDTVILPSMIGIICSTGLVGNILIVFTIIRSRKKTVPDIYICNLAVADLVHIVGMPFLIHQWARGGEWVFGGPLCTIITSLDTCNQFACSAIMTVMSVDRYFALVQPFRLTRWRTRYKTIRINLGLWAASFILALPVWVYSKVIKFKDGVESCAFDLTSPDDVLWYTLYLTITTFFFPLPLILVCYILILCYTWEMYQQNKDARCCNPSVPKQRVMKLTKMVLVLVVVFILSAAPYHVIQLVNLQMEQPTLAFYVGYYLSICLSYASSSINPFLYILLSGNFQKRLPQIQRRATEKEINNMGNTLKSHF", "protocol": "as §1"}, "168 GPCRs [15]": {"biological_target": "168 GPCRs (Homo sapiens, UniProt Q96LB2)", "sequence (Q96LB2 whole entry)": "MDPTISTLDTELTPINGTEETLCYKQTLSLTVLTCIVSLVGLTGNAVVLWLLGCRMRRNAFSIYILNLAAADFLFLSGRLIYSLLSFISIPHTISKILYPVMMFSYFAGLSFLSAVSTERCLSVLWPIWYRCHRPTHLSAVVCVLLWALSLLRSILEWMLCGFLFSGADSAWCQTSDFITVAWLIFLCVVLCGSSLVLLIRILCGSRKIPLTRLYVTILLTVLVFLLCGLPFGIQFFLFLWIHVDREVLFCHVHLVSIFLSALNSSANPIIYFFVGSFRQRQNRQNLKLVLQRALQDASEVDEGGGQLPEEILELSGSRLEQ", "protocol": "as §1"}, "168 GPCRs [16]": {"biological_target": "T2, 168 GPCRs (Homo sapiens, UniProt Q96RI0)", "T2 sequence (Q96RI0 18-385)": "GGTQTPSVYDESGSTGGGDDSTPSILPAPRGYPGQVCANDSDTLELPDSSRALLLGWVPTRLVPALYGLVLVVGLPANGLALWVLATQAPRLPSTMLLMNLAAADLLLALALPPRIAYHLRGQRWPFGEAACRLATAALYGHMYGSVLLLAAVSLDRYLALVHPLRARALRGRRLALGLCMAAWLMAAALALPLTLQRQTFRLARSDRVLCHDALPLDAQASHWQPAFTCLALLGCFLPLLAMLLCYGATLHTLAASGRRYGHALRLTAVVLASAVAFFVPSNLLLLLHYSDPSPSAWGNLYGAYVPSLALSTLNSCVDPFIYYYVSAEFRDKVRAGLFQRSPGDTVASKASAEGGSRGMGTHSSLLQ", "protocol": "as §1"}, "168 GPCRs [17]": {"biological_target": "168 GPCRs (Homo sapiens, UniProt Q9UBY5)", "protocol": "as §1"}, "168 GPCRs [18]": {"biological_target": "168 GPCRs (Homo sapiens, UniProt Q9Y5N1)", "sequence (Q9Y5N1 whole entry)": "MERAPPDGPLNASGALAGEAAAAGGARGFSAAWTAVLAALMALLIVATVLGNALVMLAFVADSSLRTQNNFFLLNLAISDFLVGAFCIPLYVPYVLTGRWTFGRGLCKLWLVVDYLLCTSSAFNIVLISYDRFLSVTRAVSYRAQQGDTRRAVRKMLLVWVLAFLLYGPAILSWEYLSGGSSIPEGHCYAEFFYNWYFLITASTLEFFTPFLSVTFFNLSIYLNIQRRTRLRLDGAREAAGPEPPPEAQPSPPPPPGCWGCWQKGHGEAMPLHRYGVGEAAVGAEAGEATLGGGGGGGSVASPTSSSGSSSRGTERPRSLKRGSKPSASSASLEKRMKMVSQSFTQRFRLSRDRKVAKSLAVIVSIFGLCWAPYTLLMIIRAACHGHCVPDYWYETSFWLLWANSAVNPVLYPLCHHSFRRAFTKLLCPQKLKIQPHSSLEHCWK", "protocol": "as §1"}},
  "data": [
    {"compound": "CNC(C)C(=O)c1ccc2c(c1)OCO2", "note": "(centres unmarked) [methylone, 3,4-methylenedioxy-N-methylcathinone]", "values": [
      {"measurement": "activity at 10 µM", "setting": "168 GPCRs [1]; EDG5, Agonist mode, 10 uM", "result": 3.7, "unit": "%"},
      {"measurement": "activity at 1 µM", "setting": "168 GPCRs [1]; EDG5, Agonist, 1 uM", "result": -4.7, "unit": "%"},
      {"measurement": "activity at 10 µM", "setting": "168 GPCRs [2]; FPRL1, Agonist mode, 10 uM", "result": 0.1, "unit": "%"},
      {"measurement": "activity at 1 µM", "setting": "168 GPCRs [2]; FPRL1, Agonist, 1 uM", "result": -0.5, "unit": "%"},
      {"measurement": "activity at 10 µM", "setting": "168 GPCRs [3]; Agonist mode, 10 uM", "result": 0.2, "unit": "%"},
      {"measurement": "activity at 1 µM", "setting": "168 GPCRs [3]; Agonist, 1 uM", "result": 2.5, "unit": "%"},
      {"measurement": "activity at 10 µM", "setting": "168 GPCRs [4]; Agonist mode, 10 uM", "result": -4.9, "unit": "%"},
      {"measurement": "activity at 1 µM", "setting": "168 GPCRs [4]; Agonist, 1 uM", "result": -2.2, "unit": "%"},
      {"measurement": "activity at 10 µM", "setting": "168 GPCRs [5]; Agonist mode, 10 uM", "result": 1.2, "unit": "%"},
      {"measurement": "activity at 1 µM", "setting": "168 GPCRs [5]; Agonist, 1 uM", "result": 1.1, "unit": "%"},
      {"measurement": "activity at 1 µM", "setting": "168 GPCRs [6]", "result": -3.6, "unit": "%"},
      {"measurement": "activity at 1 µM", "setting": "168 GPCRs [7]; 1 uM", "result": -3.4, "unit": "%"},
      {"measurement": "activity at 10 µM", "setting": "168 GPCRs [7]; 10 uM", "result": -3.7, "unit": "%"},
      {"measurement": "activity at 10 µM", "setting": "168 GPCRs [8]; CRHR1, Agonist mode, 10 uM", "result": 1.1, "unit": "%"},
      {"measurement": "activity at 1 µM", "setting": "168 GPCRs [8]; CRHR1, Agonist, 1 uM", "result": 1.4, "unit": "%"},
      {"measurement": "activity at 1 µM", "setting": "168 GPCRs [9]; 1 uM", "result": -3.3, "unit": "%"},
      {"measurement": "activity at 10 µM", "setting": "168 GPCRs [9]; 10 uM", "result": -2.9, "unit": "%"},
      {"measurement": "activity at 10 µM", "setting": "168 GPCRs [10]; Agonist mode, 10 uM", "result": -11.7, "unit": "%"},
      {"measurement": "activity at 1 µM", "setting": "168 GPCRs [10]; Agonist, 1 uM", "result": -12.3, "unit": "%"},
      {"measurement": "activity at 10 µM", "setting": "168 GPCRs [11]; CXCR3, Agonist mode, 10 uM", "result": 1.6, "unit": "%"},
      {"measurement": "activity at 1 µM", "setting": "168 GPCRs [11]; CXCR3, Agonist, 1 uM", "result": -0.2, "unit": "%"},
      {"measurement": "activity at 10 µM", "setting": "168 GPCRs [12]; P2RY6, Agonist mode, 10 uM", "result": 2.4, "unit": "%"},
      {"measurement": "activity at 1 µM", "setting": "168 GPCRs [12]; P2RY6, Agonist, 1 uM", "result": 4.5, "unit": "%"},
      {"measurement": "activity at 10 µM", "setting": "168 GPCRs [13]; Agonist mode, 10 uM", "result": -0.8, "unit": "%"},
      {"measurement": "activity at 1 µM", "setting": "168 GPCRs [13]; Agonist, 1 uM", "result": -0.3, "unit": "%"},
      {"measurement": "activity at 10 µM", "setting": "168 GPCRs [14]; MCHR2, Agonist mode, 10 uM", "result": -0.7, "unit": "%"},
      {"measurement": "activity at 1 µM", "setting": "168 GPCRs [14]; MCHR2, Agonist, 1 uM", "result": -1.5, "unit": "%"},
      {"measurement": "activity at 10 µM", "setting": "168 GPCRs [15]; MRGPRX1, Agonist mode, 10 uM", "result": -1.5, "unit": "%"},
      {"measurement": "activity at 1 µM", "setting": "168 GPCRs [15]; MRGPRX1, Agonist, 1 uM", "result": -1.7, "unit": "%"},
      {"measurement": "activity at 10 µM", "setting": "168 GPCRs [16]; F2RL3, Agonist mode, 10 uM", "result": 7, "unit": "%"},
      {"measurement": "activity at 1 µM", "setting": "168 GPCRs [16]; F2RL3, Agonist, 1 uM", "result": 4.3, "unit": "%"},
      {"measurement": "activity at 10 µM", "setting": "168 GPCRs [17]; EDG7, Agonist mode, 10 uM", "result": 1.1, "unit": "%"},
      {"measurement": "activity at 1 µM", "setting": "168 GPCRs [17]; EDG7, Agonist, 1 uM", "result": 3, "unit": "%"},
      {"measurement": "activity at 10 µM", "setting": "168 GPCRs [18]; HRH3, Agonist mode, 10 uM", "result": -3.7, "unit": "%"},
      {"measurement": "activity at 1 µM", "setting": "168 GPCRs [18]; HRH3, Agonist, 1 uM", "result": -3.4, "unit": "%"}
    ]}
  ]
}
